Measured values from patent publication US8158828B2, “Nuclear receptor binding agents” (priority 2005, dated 2012).
Entries after “also recorded” stand apart in the source; their conditions may differ.

Assays:
ER-β = target: T1, ER-β (Rattus norvegicus, UniProt Q62986); assay: ER-β transactivation, ERE-LUC in COS or 293 cells; assay type: cell-based; parameters: % estardiol activity, ER-β: dose or concentration left out as unconfirmed; settings: for ER-β LUC expression, compound alone / inhibition of E2-stimulated LUC expression, ER-β: COS or 293 cells; for inhibition of E2-stimulated LUC expression, ER-β: with E2
T1 construct: expressed in transfected cells; host or cells: COS or 293 cells

[1] = tested on: pS2 (gene encoding the trefoil peptides) in MCF-7 cells; assay: pS2 gene expression in MCF-7 cells (realtime RT-PCR); assay type: cell-based
Description: MCF-7 cells were plated at 500,000 cells per well of a 6 well plate. RNA was isolated and the message levels of pS2 (gene encoding the trefoil peptides) measured and normalized to 18S ribosomal RNA by realtime polymerase chain reaction (rtPCR).
FIG. 11: Agonistic activity of the indicated compounds in MCF-7 cells. MCF-7 cells were plated at 500,000 cells per well of a 6 well plate. RNA was isolated and the message levels of pS2 gene measured and normalized to 18S ribosomal RNA by realtime rtPCR.
MCF-7 cells were plated at 500,000 cells per well of a 6 well plate. The cells were serum starved for 3 days and then were treated as above for 16 hrs. RNA was isolated and gene expression levels assessed by realtime RT-PCR, following normalization to 18S ribosomal RNA.

[2] = Metabolic stability in human liver microsomes; settings: 1 μM substrate, 0.5 mg/mL microsomes
Description: Each substrate or reference control was dissolved at a concentration of 10 mM in DMSO, from which a 5 μM spiking solution was prepared by dilution in water. Substrates (1 μM) were incubated in the presence of human liver microsomes (Xenotech LLC, Kansas City Mo.) at 0.5 mg/mL fortified with an NADPH regenerating system at 37° C. and pH 7.4. The NADPH regenerating system consisted of glucose-6-phosphate dehydrogenase (1 units/mL) in 0.05M K2HPO4. Duplicate incubations were performed in 96-well polypropylene cluster tubes in a final volume of 250 μL per reaction. At 0, 2, 4, 6, 10, 30, and 60 minutes a stop solution (300 μL acetonitrile) was added to aliquots of the reaction mixture. Precipitated protein was removed by centrifugation (3000 rpm for 15 minutes) and the supernatants were transferred to clean 96-well plates for analysis.
The samples were injected onto a Phenomenex Luna hexylphenyl 50×2 mm i.d. 5 uM, column fitted with a guard column. An isocratic mobile phase consisting of 50% acetonitrile and 0.1% formic acid in water was used at a flow rate of 0.3 mL/min. The protonated molecular ion (M+H)^+ of the analyte was monitored by MDS/Sciex API 4000QTrap triple quadrupole mass spectrometer using electrospray positive mode ionization with a temperature of 500° C. and a spray voltage of 4000V. Total analysis time was 1.5 min per sample.
Metabolic stability was defined as the amount of substrate metabolized by the incubation with hepatic microsomes and expressed as a percentage of the initial amount of substrate (% remaining) based on peak area. Initial substrate concentration for each analyte was 1 μM. The initial peak area of each substrate was determined at time zero and metabolic stability was assessed based on the change in analyte peak area from time 0 min to a single fixed timepoint for each sample (2-60 min, representative timepoints are shown in Table 2 below).

T1 sequence (Q62986 whole entry): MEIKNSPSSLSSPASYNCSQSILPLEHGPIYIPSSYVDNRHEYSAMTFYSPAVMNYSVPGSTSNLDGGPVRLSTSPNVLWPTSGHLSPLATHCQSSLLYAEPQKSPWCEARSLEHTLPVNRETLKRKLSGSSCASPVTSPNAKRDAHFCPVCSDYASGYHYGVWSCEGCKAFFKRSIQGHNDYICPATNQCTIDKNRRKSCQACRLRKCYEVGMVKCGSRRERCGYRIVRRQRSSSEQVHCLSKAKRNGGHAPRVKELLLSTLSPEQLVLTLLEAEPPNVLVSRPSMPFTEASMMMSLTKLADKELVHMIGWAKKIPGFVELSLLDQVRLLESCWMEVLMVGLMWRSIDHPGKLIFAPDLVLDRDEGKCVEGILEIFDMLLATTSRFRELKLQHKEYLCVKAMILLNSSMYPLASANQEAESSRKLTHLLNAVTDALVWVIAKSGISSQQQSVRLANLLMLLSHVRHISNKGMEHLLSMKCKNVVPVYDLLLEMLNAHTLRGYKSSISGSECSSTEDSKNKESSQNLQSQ

Compound	ER-β LUC expression, compound alone (ER-β)	inhibition of E2-stimulated LUC expression, ER-β (ER-β)	pS2 expression ([1]; 16 hrs)	inhibition of estrogen-induced upregulation of pS2 gene expression ([1]; with estrogen)	% Remaining 0 min [2]	% Remaining 10 min [2]	% Remaining 30 min [2]	% Remaining 60 min [2]	% estardiol activity, ER-β (ER-β)
O=C(c1ccccc1)N(c1ccc(O)cc1)c1ccc(OCCN2CCCCC2)cc1 [Compound 4a, N-(4-hydroxyphenyl)-N-[4-(2-piperidin-1-ylethoxy)-phenyl]-benzamide]	neither 4a nor 4h stimulated LUC expression	inhibited E2-stimulated LUC expression	only minimally did so; also recorded: partial agonist of ER action in MCF-7 cells	inhibited estrogen-induced upregulation of pS2 gene expression	100%	105%	95%	74%	–
Cl.O=C(c1ccc(F)cc1)N(c1ccc(O)cc1)c1ccc(OCCN2CCCCC2)cc1 [Compound 4h, N-(4-hydroxyphenyl)-N-[4-(2-piperidin-1-ylethoxy)-phenyl]-4-fluroro-benzamide hydrochloride]	neither 4a nor 4h stimulated LUC expression	inhibited E2-stimulated LUC expression	–	–	100%	99%	86%	70%	29.1%
